Experimental data as given in ChEMBL document CHEMBL1146442, “Kawaguchipeptin B, an antibacterial cyclic undecapeptide from the cyanobacterium Microcystis aeruginosa” (1997).
Values after ≈ are worked out from the molar mass of the structure shown. Residues, ends and D or L forms follow the SMILES beside them.

Test system: Staphylococcus aureus
Experiment: Antimicrobial activity against Staphylococcus aureus
Assay type: functional

MIC [µg/mL] | Structure (SMILES)
1 (≈ 0.703 µM) | CC(C)=CC[C@@]12C[C@H]3C(=O)N[C@@H](CO)C(=O)N[C@@H]([C@@H](C)O)C(=O)N4CCC[C@H]4C(=O)N4[C@@H](C[C@@]5(CC=C(C)C)c6ccccc6N[C@@H]45)C(=O)N[C@H](CC(C)C)C(=O)N[C@@H](CC(N)=O)C(=O)NCC(=O)N[C@@H](CC(=O)O)C(=O)N[C@@H](CC(N)=O)C(=O)N[C@@H](CC(N)=O)C(=O)N3[C@H]1Nc1ccccc12 [KAWAGUCHIPEPTIN A]
1 (≈ 0.778 µM) | CC(C)C[C@@H]1NC(=O)[C@H](Cc2c[nH]c3ccccc23)NC(=O)[C@@H]2CCCN2C(=O)[C@H]([C@@H](C)O)NC(=O)[C@H](CO)NC(=O)[C@H](Cc2c[nH]c3ccccc23)NC(=O)[C@H](CC(N)=O)NC(=O)[C@H](CC(N)=O)NC(=O)[C@H](CC(=O)O)NC(=O)CNC(=O)[C@H](CC(N)=O)NC1=O [KAWAGUCHIPEPTIN B] (HELM PEPTIDE1{D.N.N.W.S.T.P.W.L.N.G}$PEPTIDE1,PEPTIDE1,1:R1-11:R2$$$V2.0)
